The results in this text go back to patent US20250325552A1, “SUBSTITUTED THIADIAZOLYL DERIVATIVES AS DNA POLYMERASE THETA INHIBITORS” (IDEAYA Biosciences, Inc., priority 2020, published 2025).

This test has as its target Polθ theta (1-899) (hPolQ) (Homo sapiens (Human), UniProt O75417). Briefly: Biological Assay 1: Polθ ATPase activity, NADH oxidation-coupled enzymatic assay (10 nM enzyme, 30 min). It counts as biochemical. As to conditions: Polθ (1-899) 10 nM, 100 μM ATP, 300 nM dT50 ssDNA; Examples 1 to 268; read-out: ATPase NADH coupling:Standard Screening:hPolQ IC50. In outline:
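ATP turnover was coupled to NADH oxidation and followed at 340 nm every minute for 30 min. Enzyme (residues 1-899, 10 nM) sat with compound for 15 min at room temperature before an equal-volume addition of 100 μM ATP plus 300 nM dT50 ssDNA. Progress-curve slopes from 10-point dilutions were fitted by a four-parameter model.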

SMILES strings stand for the structures.

Polθ theta (1-899) (hPolQ), sequence (O75417 1-899): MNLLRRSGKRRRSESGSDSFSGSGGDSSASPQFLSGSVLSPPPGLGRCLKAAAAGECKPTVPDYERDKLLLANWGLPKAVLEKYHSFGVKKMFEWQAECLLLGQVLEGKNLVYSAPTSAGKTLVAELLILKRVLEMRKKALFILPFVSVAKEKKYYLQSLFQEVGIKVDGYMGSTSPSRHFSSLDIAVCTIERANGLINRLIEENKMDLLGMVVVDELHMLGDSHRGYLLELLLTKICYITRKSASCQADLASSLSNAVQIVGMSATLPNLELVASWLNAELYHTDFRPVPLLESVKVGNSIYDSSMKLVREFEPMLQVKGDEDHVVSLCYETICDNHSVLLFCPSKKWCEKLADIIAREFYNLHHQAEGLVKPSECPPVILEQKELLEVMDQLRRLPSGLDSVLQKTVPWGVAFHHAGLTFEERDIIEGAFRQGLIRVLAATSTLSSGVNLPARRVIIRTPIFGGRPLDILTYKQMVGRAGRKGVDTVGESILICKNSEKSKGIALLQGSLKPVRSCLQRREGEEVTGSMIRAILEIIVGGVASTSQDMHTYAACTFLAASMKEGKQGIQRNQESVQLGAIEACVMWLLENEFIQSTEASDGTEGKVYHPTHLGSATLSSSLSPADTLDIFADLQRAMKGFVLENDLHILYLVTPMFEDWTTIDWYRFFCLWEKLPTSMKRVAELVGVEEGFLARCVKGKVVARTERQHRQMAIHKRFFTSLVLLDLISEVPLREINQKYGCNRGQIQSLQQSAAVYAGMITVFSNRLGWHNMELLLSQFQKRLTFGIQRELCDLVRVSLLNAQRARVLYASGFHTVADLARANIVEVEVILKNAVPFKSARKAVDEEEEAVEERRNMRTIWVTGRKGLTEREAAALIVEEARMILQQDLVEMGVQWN

On to `COc1ccnc(COc2nnc(NC(=O)c3cnc(C)cc3-c3c(F)cccc3OC)s2)c1` [Example 67, 4-(2-fluoro-6-methoxyphenyl)-N-(5-((4-methoxypyridin-2-yl)methoxy)-1,3,4-thiadiazol-2-yl)-6-methylnicotinamide], for which the IC50 – broadly, the midpoint of a concentration-inhibition curve – is ≤ 0.2 µM.

In the case of `COc1cnc(Cl)cc1-c1cc(C)ncc1C(=O)Nc1nnc(OC[C@@H]2COC[C@H]2C)s1` (single isomer, unassigned) [Example 266], the IC50 was ≤ 0.2 µM.

Take `COc1cccc(F)c1-c1cc(C)ncc1C(=O)Nc1nnc(OCC2CCCn3nccc32)s1` (stereo not drawn) [Example 135, 4-(2-fluoro-6-methoxyphenyl)-6-methyl-N-(5-(4H,5H,6H,7H-pyrazolo(1,5-a)pyridin-4-ylmethoxy)-1,3,4-thiadiazol-2-yl)pyridine-3-carboxamide]: the IC50 was ≤ 0.2 µM.

Turning to `COc1cccc(F)c1-c1cc(C)ncc1C(=O)Nc1nnc(OCC2CCS(=O)(=O)CC2)s1` [Example 158, N-(5-((1,1-dioxidotetrahydro-2H-thiopyran-4-yl)methoxy)-1,3,4-thiadiazol-2-yl)-4-(2-fluoro-6-methoxyphenyl)-6-methylnicotinamide], the IC50 was ≤ 0.2 µM.

In the case of `COc1cnc(Cl)cc1-c1cc(C)ncc1C(=O)Nc1nnc(OCC2CC3(COC3)C2)s1` [Example 172, N-(5-((2-oxaspiro(3.3)heptan-6-yl)methoxy)-1,3,4-thiadiazol-2-yl)-2′-chloro-5′-methoxy-6-methyl-(4,4′-bipyridine)-3-carboxamide], the IC50 was ≤ 0.2 µM.

On to `COc1cnc(Cl)cc1-c1cc(C)ncc1C(=O)Nc1nnc(OC[C@H]2CC[C@H](O)CC2)s1` [Example 129, 2′-chloro-N-(5-(((1r,4r)-4-hydroxycyclohexyl)methoxy)-1,3,4-thiadiazol-2-yl)-5′-methoxy-6-methyl-[4,4′-bipyridine]-3-carboxamide], for which the half-inhibitory concentration (IC50) is ≤ 0.2 µM.

With `COc1cnc(Cl)cc1-c1cc(C)ncc1C(=O)Nc1nnc(OCC2COC(C)(C)CO2)s1` (stereo not drawn) [Example 228, 2′-chloro-N-(5-((5,5-dimethyl-1,4-dioxan-2-yl)methoxy)-1,3,4-thiadiazol-2-yl)-5′-methoxy-6-methyl-(4,4′-bipyridine)-3-carboxamide], the IC50 is ≤ 0.2 µM.

As for `COc1cnc(Cl)c(F)c1-c1cc(C)ncc1C(=O)Nc1nnc(OCC23CC(O)(C2)C3)s1` [Example 185, 2′-chloro-3′-fluoro-N-(5-((3-hydroxybicyclo(1.1.1)pentan-1-yl)methoxy)-1,3,4-thiadiazol-2-yl)-5′-methoxy-6-methyl-(4,4′-bipyridine)-3-carboxamide], the IC50 is ≤ 0.2 µM.

In the case of `COc1cccc(F)c1-c1cc2cnc(C)n2cc1C(=O)Nc1nnc(OC[C@H]2CC[C@H](O)CC2)s1` [Example 195, 7-(2-fluoro-6-methoxyphenyl)-N-(5-(((1r,4r)-4-hydroxycyclohexyl)methoxy)-1,3,4-thiadiazol-2-yl)-3-methylimidazo(1,5-a)pyridine-6-carboxamide], the IC50 was ≤ 0.2 µM.

With `COc1cccc(F)c1-c1cc(C)ncc1C(=O)Nc1nnc(OCc2cnc(C(C)(C)O)cn2)s1` [Example 119, 4-(2-fluoro-6-methoxyphenyl)-N-(5-((5-(2-hydroxypropan-2-yl)pyrazin-2-yl)methoxy)-1,3,4-thiadiazol-2-yl)-6-methylnicotinamide], the IC50 is 0.2 to 0.5 µM.

Turning to `COc1ccc(Cl)cc1-c1cc(C)ncc1C(=O)Nc1nnc(OCc2ccc([S@@](C)(=N)=O)cc2)s1` [Example 123, (S)-4-(5-chloro-2-methoxyphenyl)-6-methyl-N-(5-((4-(S-methylsulfonimidoyl)benzyl)oxy)-1,3,4-thiadiazol-2-yl)nicotinamide], the IC50 was ≤ 0.2 µM.

On to `COc1cnc(Cl)cc1-c1cc(C)ncc1C(=O)Nc1nnc(OC[C@H]2CC[C@H](O)C2)s1` (single isomer, unassigned) [Example 208], for which the IC50 is ≤ 0.2 µM.

Consider `COc1cnc(C)cc1-c1cc(C)ncc1C(=O)Nc1nnc(OCC2CC3(CC(O)C3)C2)s1` (stereo not drawn) [Example 139, N-(5-((6-hydroxyspiro[3.3]heptan-2-yl)methoxy)-1,3,4-thiadiazol-2-yl)-5′-methoxy-2′,6-dimethyl-[4,4′-bipyridine]-3-carboxamide], for which the IC50 was ≤ 0.2 µM.

`COc1cnc(Cl)cc1-c1cc(C)ncc1C(=O)Nc1nnc(OC[C@H]2CO[C@H](C)C2)s1` (single isomer, unassigned) [Example 252]: the IC50 was ≤ 0.2 µM.

Consider `COc1cnc(Cl)cc1-c1cc(C)ncc1C(=O)Nc1nnc(OCC2CCNCC2)s1` [Example 174, 2′-chloro-5′-methoxy-6-methyl-N-(5-(piperidin-4-ylmethoxy)-1,3,4-thiadiazol-2-yl)-(4,4′-bipyridine)-3-carboxamide], for which the IC50 was ≤ 0.2 µM.

Consider `COc1cnc(Br)cc1-c1cc(C)ncc1C(=O)Nc1nnc(OC[C@H]2CC[C@H](O)CC2)s1` [Example 247, 2′-bromo-N-(5-(((1r,4r)-4-hydroxycyclohexyl)methoxy)-1,3,4-thiadiazol-2-yl)-5′-methoxy-6-methyl-(4,4′-bipyridine)-3-carboxamide], for which the IC50 was ≤ 0.2 µM.

Regarding `CN=[S@](C)(=O)c1ccc(COc2nnc(NC(=O)c3cnc(C)cc3-c3c(F)cccc3OC)s2)cc1` [Example 154, N-(5-((4-((R)—N,S-dimethylsulfonimidoyl)benzyl)oxy)-1,3,4-thiadiazol-2-yl)-4-(2-fluoro-6-methoxyphenyl)-6-methylnicotinamide], the IC50 is ≤ 0.2 µM.

For the compound `COc1cnc(Cl)cc1-c1cc(C)ncc1C(=O)Nc1nnc(OC[C@H]2COCC(C)(C)O2)s1` (single isomer, unassigned) [Example 221], the IC50 was ≤ 0.2 µM.

Turning to `CN=[S@@](C)(=O)c1ccc(COc2nnc(NC(=O)c3cnc(C)cc3-c3c(F)cccc3OC)s2)cc1` [Example 155, N-(5-((4-((S)—N,S-dimethylsulfonimidoyl)benzyl)oxy)-1,3,4-thiadiazol-2-yl)-4-(2-fluoro-6-methoxyphenyl)-6-methylnicotinamide], the IC50 was ≤ 0.2 µM.

For the compound `COc1cnc(Cl)cc1-c1cc(C)ncc1C(=O)Nc1nnc(OCC2CCNC2)s1` (racemic) [Example 175, 2′-chloro-5′-methoxy-6-methyl-N-(5-(pyrrolidin-3-ylmethoxy)-1,3,4-thiadiazol-2-yl)-(4,4′-bipyridine)-3-carboxamide], the IC50 was ≤ 0.2 µM.

For `COc1ccccc1-c1cc(C)ncc1C(=O)Nc1nnc(O[C@@H](CO)c2ccc(Cl)cn2)s1` [Example 29, (R)—N-(5-(1-(5-chloropyridin-2-yl)-2-hydroxyethoxy)-1,3,4-thiadiazol-2-yl)-4-(2-methoxyphenyl)-6-methylnicotinamide], the IC50 was in the range of 1 to 10 µM.

For the compound `COc1cccc(F)c1-c1cc(C)ncc1C(=O)Nc1nnc(OCC23CC(C#N)(C2)C3)s1` [Example 95, N-(5-((3-cyanobicyclo(1.1.1)pentan-1-yl)methoxy)-1,3,4-thiadiazol-2-yl)-4-(2-fluoro-6-methoxyphenyl)-6-methylpyridine-3-carboxamide], the IC50 is ≤ 0.2 µM.

Take `COc1cnc(Cl)cc1-c1cc(C)ncc1C(=O)Nc1nnc(OCc2ccc([C@H](C)O)cn2)s1` [Example 68, (S)-2′-chloro-N-(5-((5-(1-hydroxyethyl)pyridin-2-yl)methoxy)-1,3,4-thiadiazol-2-yl)-5′-methoxy-6-methyl-(4,4′-bipyridine)-3-carboxamide]: the IC50 was ≤ 0.2 µM.

Regarding `COc1cnc(C)cc1-c1cc(C)ncc1C(=O)Nc1nnc(OCc2ccc(C(C)(C)C#N)cn2)s1` [Example 83, N-(5-((5-(2-cyanopropan-2-yl)pyridin-2-yl)methoxy)-1,3,4-thiadiazol-2-yl)-5′-methoxy-2′,6-dimethyl-(4,4′-bipyridine)-3-carboxamide], the IC50 is ≤ 0.2 µM.

Turning to `COc1ccc(Cl)cc1-c1cc(C)ncc1C(=O)Nc1nnc(OCc2ccc([S@](C)(=N)=O)cn2)s1` [Example 147, (R)-4-(5-chloro-2-methoxyphenyl)-6-methyl-N-(5-((5-(S-methylsulfonimidoyl)pyridin-2-yl)methoxy)-1,3,4-thiadiazol-2-yl)nicotinamide], the IC50 is ≤ 0.2 µM.

For the compound `COc1cccc(F)c1-c1cc(C)ncc1C(=O)Nc1nnc(OCc2ccc([S@](C)(=N)=O)cn2)s1` [Example 149, 4-(2-fluoro-6-methoxyphenyl)-6-methyl-N-(5-((5-((R)—S-methylsulfonimidoyl)pyridin-2-yl)methoxy)-1,3,4-thiadiazol-2-yl)nicotinamide], the IC50 is ≤ 0.2 µM.

Consider `COc1cccc(F)c1-c1cc(C)ncc1C(=O)Nc1nnc(OCc2ccc(C(C)O)cn2)s1` (racemic) [Example 22, 4-(2-fluoro-6-methoxyphenyl)-N-(5-((5-(1-hydroxyethyl)pyridin-2-yl)methoxy)-1,3,4-thiadiazol-2-yl)-6-methylnicotinamide], for which the IC50 was ≤ 0.2 µM.

In the case of `COc1ccccc1-c1cnccc1C(=O)Nc1nnc(OCC2CCCCO2)s1` (stereo not drawn) [compound 2, 3-(2-methoxyphenyl)-N-(5-((tetrahydro-2H-pyran-2-yl)methoxy)-1,3,4-thiadiazol-2-yl)isonicotinamide], the IC50 lay within 0.2 to 0.5 µM.

For the compound `COc1cnc(Cl)cc1-c1cc(C)ncc1C(=O)Nc1nnc(OCC23CC(F)(C2)C3)s1` [Example 78, 2′-chloro-N-(5-((3-fluorobicyclo(1.1.1)pentan-1-yl)methoxy)-1,3,4-thiadiazol-2-yl)-5′-methoxy-6-methyl-(4,4′-bipyridine)-3-carboxamide], the IC50 is ≤ 0.2 µM.

On to `COc1cnc(Cl)c(F)c1-c1cc(C)ncc1C(=O)Nc1nnc(OC[C@@H]2COCCO2)s1` [Example 239, N-(5-(((S)-1,4-dioxan-2-yl)methoxy)-1,3,4-thiadiazol-2-yl)-2′-chloro-3′-fluoro-5′-methoxy-6-methyl-(4,4′-bipyridine)-3-carboxamide], for which the IC50 was ≤ 0.2 µM.
